Measurements reported in patent US10221163B2 (priority 2015, dated 2019).
Read-outs that look alike come from different tables or passages of the source.

Columns and labels:
IMP-1 = IMP-1 (Serratia marcescens, UniProt P52699); assay: biochemical; format: biochemical; conditions: fluorescence assay, CCF2-FA substrate, 2 pM enzyme, 2 hours at 25° C.; read-out: IMP-1 IC50
Summary of the method: (§1)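 Inhibitor was mixed with the metallo-β-lactamase and CCF2-FA. After 2 hours at 25° C, fluorescence of the coumarin–fluorescein cephalosporin substrate was read. IC50 was calculated with a 4-parameter fit.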

NDM-1 = NDM-1 (Klebsiella pneumoniae, UniProt C7C422); assay: biochemical; format: biochemical; conditions: fluorescence assay, CCF2-FA substrate, 1 pM enzyme, 2 hours at 25° C.; read-out: NDM-1 IC50
Chain of NDM-1 (C7C422 whole entry, looked up, species assumed): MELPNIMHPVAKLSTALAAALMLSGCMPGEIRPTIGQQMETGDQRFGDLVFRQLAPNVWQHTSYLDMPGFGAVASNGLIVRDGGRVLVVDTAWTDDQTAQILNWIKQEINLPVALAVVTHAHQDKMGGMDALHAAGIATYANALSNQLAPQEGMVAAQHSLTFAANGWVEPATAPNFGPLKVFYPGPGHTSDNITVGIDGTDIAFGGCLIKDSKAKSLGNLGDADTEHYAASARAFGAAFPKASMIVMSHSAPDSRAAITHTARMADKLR
Summary of the method: as §1

VIM-1 = VIM-1 (Pseudomonas aeruginosa (strain ATCC 15692 / DSM 22644 / CIP 104116 / JCM 14847 / LMG 12228 / 1C / PRS 101 / PAO1), UniProt A0A0F7KYQ8); assay: biochemical; conditions: CCF2-FA substrate, 30 pM enzyme, 2 hours at 25° C.
Summary of the method: as §1

[1] = system: Escherichia coli expressing NDM-1 (CLB30005, CLB30016); format: cell-based; conditions: with imipenem 1 μg/ml; 95% inhibition of bacterial growth
Summary of the method: (§2)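 Clinical isolates (E. coli NDM-1, S. marcescens IMP-1, K. pneumoniae VIM-1) were diluted 1:100 from saline suspension into 1.1×CAMHB and exposed to test compound with imipenem at 1 μg/ml. Plates were incubated at 35° C for 22 hours to 24 hours, and growth was read by absorbance.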

[2] = system: Klebsiella pneumoniae expressing VIM-1 (IHMA599644); format: cell-based; conditions: with imipenem 1 μg/ml; 95% inhibition of bacterial growth
Summary of the method: as §2

[3] = system: Serratia marcescens expressing IMP-1 (CL5741); format: cell-based; conditions: with imipenem 1 μg/ml; 95% inhibition of bacterial growth
Summary of the method: as §2

[4] = system: Pseudomonas aeruginosa efflux+ (MB9798), IMP-1; format: cell-based; conditions: concentration restoring susceptibility to imipenem at 2 μg/mL in the presence of a class A, C, D serine β-lactamase inhibitor closely related to relebactam
Summary of the method: (§3)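 Steps: add fixed imipenem and/or ceftazidime (usually CLSI breakpoint) and fixed AmpC-directed class A/C inhibitor to microbroth MIC wells; titrate MBL inhibitor; record concentration regaining susceptibility for each PAO1-derived strain; divide efflux+ by efflux− value.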

[5] = system: Pseudomonas aeruginosa efflux− (MB9799), IMP-1; format: cell-based; conditions: concentration restoring susceptibility to imipenem at 2 μg/mL in the presence of a class A, C, D serine β-lactamase inhibitor closely related to relebactam
Summary of the method: as §3

[6] = system: Pseudomonas aeruginosa MB9798 vs MB9799; conditions: ratio MITC95 PA_9798/MITC95 PA_9799
Summary of the method: as §3

[7] = fluorescence assay, read-out: VIM-1 IC50

Chain of IMP-1 (P52699 whole entry, looked up, species assumed): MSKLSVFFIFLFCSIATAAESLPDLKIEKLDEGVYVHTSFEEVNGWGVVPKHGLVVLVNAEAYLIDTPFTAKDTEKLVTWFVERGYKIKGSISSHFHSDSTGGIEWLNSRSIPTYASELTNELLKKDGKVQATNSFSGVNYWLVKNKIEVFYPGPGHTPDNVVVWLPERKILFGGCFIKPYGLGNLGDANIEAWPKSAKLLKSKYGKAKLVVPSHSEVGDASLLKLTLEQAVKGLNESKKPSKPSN

SMILES | IC50 (IMP-1) [nM] | IC50 (NDM-1) [nM] | IC50 (VIM-1; VIM-1 IC50, fluorescence assay) [nM] | Escherichia coli expressing NDM-1 (CLB30016) MITC95 [1] [µM] | Klebsiella pneumoniae expressing VIM-1 (IHMA599644) MITC95 [2] [µM] | Serratia marcescens expressing IMP-1 (CL5741) MITC95 [3] [µM] | P. aeruginosa expressing IMP-1, efflux + (MB9798) MITC95 [4] [µM] | P. aeruginosa expressing IMP-1, efflux − (MB9799) MITC95 [5] [µM] | Efflux ratio [6] | IC50 (VIM-1; [7]) [nM]
Nc1nc2c(-c3ccc(S(=O)(=O)N[C@H]4CN[C@H](CO)C4)c(S(N)(=O)=O)c3-c3nnn[nH]3)cccc2[nH]1 [Example 172, 4-(2-amino-1H-benzo[d]imidazol-4-yl)-N^1-((3R,5S)-5-(hydroxymethyl)pyrrolidin-3-yl)-3-(1H-tetrazol-5-yl)benzene-1,2-disulfonamide] | 0.509 | 0.05 | 0.159 | 0.5859 | 1.563 | 0.7813 | 0.3906 | 0.7813 | 0.50 | 
Nc1nc2c(-c3ccc(S(=O)(=O)N[C@H]4CN[C@@H](CO)C4)c(S(N)(=O)=O)c3-c3nnn[nH]3)cccc2[nH]1 [Example 173, 4-(2-amino-1H-benzo[d]imidazol-4-yl)-N^1-((3R,5R)-5-(hydroxymethyl)pyrrolidin-3-yl)-3-(1H-tetrazol-5-yl)benzene-1,2-disulfonamide] | 0.933 | 0.0948 | 0.284 | 0.7813 | 3.125 | 0.7813 | 1.563 | 1.563 | 1.00 | 
Nc1nc2c(-c3ccc(S(=O)(=O)N[C@@H]4CN[C@@H](CO)C4)c(S(N)(=O)=O)c3-c3nnn[nH]3)cccc2[nH]1 [Example 174, 4-(2-amino-1H-benzo[d]imidazol-4-yl)-N^1-((3S,5R)-5-(hydroxymethyl)pyrrolidin-3-yl)-3-(1H-tetrazol-5-yl)benzene-1,2-disulfonamide] | 1.66 | 0.117 | 0.39 | 3.125 | 3.125 | 1.563 | 1.563 | 1.563 | 1.00 | 
Nc1nc2c(-c3ccc(S(=O)(=O)N[C@@H]4CN[C@H](CO)C4)c(S(N)(=O)=O)c3-c3nnn[nH]3)cccc2[nH]1 [Example 175, 4-(2-amino-1H-benzo[d]imidazol-4-yl)-N^1-((3S,5S)-5-(hydroxymethyl)pyrrolidin-3-yl)-3-(1H-tetrazol-5-yl)benzene-1,2-disulfonamide] | 1 | 0.127 | 0.334 | 0.7813 | 3.125 | 1.563 | 0.7813 | 1.563 | 0.50 | 
Nc1nc2c(-c3ccc(S(=O)(=O)N[C@@]4(CO)CCNC4)c(S(N)(=O)=O)c3-c3nnn[nH]3)cccc2[nH]1 [Example 176, (S)-4-(2-amino-1H-benzo[d]imidazol-4-yl)-N1-(3-(hydroxymethyl)pyrrolidin-3-yl)-3-(1H-tetrazol-5-yl)benzene-1,2-disulfonamide] | 0.728 | 0.0524 |  | 0.3906 | 1.563 | 0.7813 | 0.7813 | 0.7813 | 1.00 | 0.192
Nc1nc2c(-c3ccc(S(=O)(=O)N[C@]4(CO)CCNC4)c(S(N)(=O)=O)c3-c3nnn[nH]3)cccc2[nH]1 [Example 177, (R)-4-(2-amino-1H-benzo[d]imidazol-4-yl)-N1-(3-(hydroxymethyl)pyrrolidin-3-yl)-3-(1H-tetrazol-5-yl)benzene-1,2-disulfonamide] | 0.862 | 0.0669 |  | 0.7813 | 1.563 | 1.563 | 0.7813 | 1.563 | 0.50 | 0.246
Nc1nc2c(-c3ccc(S(=O)(=O)N[C@@H]4CCCNC4)c(S(N)(=O)=O)c3-c3nnn[nH]3)cccc2[nH]1 [Example 178, (R)-4-(2-amino-1H-benzo[d]imidazol-4-yl)-N^1-(piperidin-3-yl)-3-(1H-tetrazol-5-yl)benzene-1,2-disulfonamide] | 0.87 | 0.064 |  | 1.563 | 3.125 | 1.563 | 1.563 | 1.563 | 1.00 | 0.266
Nc1nc2c(-c3ccc(S(=O)(=O)N[C@H]4CCCNC4)c(S(N)(=O)=O)c3-c3nnn[nH]3)cccc2[nH]1 [Example 179, (S)-4-(2-amino-1H-benzo[d]imidazol-4-yl)-N^1-(piperidin-3-yl)-3-(1H-tetrazol-5-yl)benzene-1,2-disulfonamide] | 3 | 0.219 |  | 1.563 | 3.125 | 3.125 | 3.125 | 1.563 | 2.00 | 0.904
NCCNS(=O)(=O)c1ccc(-c2cc(F)cc3[nH]c(N)nc23)c(-c2nnn[nH]2)c1S(N)(=O)=O [Example 180, 4-(2-amino-6-fluoro-1H-benzo[d]imidazol-4-yl)-N^1-(2-aminoethyl)-3-(1H-tetrazol-5-yl)benzene-1,2-disulfonamide] | 0.387 | 0.0472 |  | 0.3906 | 1.563 | 0.7813 | 0.3906 | 0.7813 | 0.50 | 0.161
NCCCNS(=O)(=O)c1ccc(-c2cccc3[nH]c(N)nc23)c(-c2nn[nH]n2)c1S(N)(=O)=O [Example 182, 4-(2-amino-1H-benzo[d]imidazol-4-yl)-N1-(3-aminopropyl)-3-(2H-tetrazol-5-yl)benzene-1,2-disulfonamide] | 0.453 | 0.0393 | 0.0904 | 0.2578 | 0.6875 | 0.5573 | 0.3438 | 0.4271 | 0.80 | 
